Where two headings read alike, the source gives them in different places.
Legend:
HBV [1] = assay: Antiviral activity on HBV replication in 2.2.15 cells (blot hybridization of virion DNA and replicative intermediates); type: cell-based; settings: for EC90: Hepatitis B virus, 90% inhibition of viral replication
Method: A common method of evaluating the success of antiviral and anticancer agents is by measuring the efficacy and toxicity in tissue culture systems. The antiviral activity of the macromolecular prodrug made according to the teachings in Example 40 was evaluated in […], a common assay for evaluating efficacy and toxicity of agent for Hepatitis B, as described in detail in Example 42.
(§1) The antiviral activities and cytotoxicity of a macromolecular prodrug of Dextran-araA made according to the teachings in Example 40 and the parent nucleoside analog araA were evaluated using […] (obtained from transfection of the Hep G2 human hepatoblastoma cell line with HBV) as described by Korba and Gerin (Korba B E, Gerin J L., Antiviral Research 1992; 19:55-70.) It is standard system widely used to compare the safety and efficacy of drugs for the treatment of HBV. The data for β-L-FTC,a nucleoside analog with pharmacological properties similar to Lamivudine (3TC), in the same system are shown for comparison. Lamivudine is a recently developed nucleoside analog that has been approved by the U.S. FDA for the treatment of HIV and has shown promise in extensive clinical trials against HBV
(§2) Briefly, the test compounds were added to confluent cultures of 2.2.15 cells every 24 hours for nine consecutive days in fresh culture media (RPMI 1640 with 2% fetal bovine serum, Gibco Inc., Grand Island N.Y. U.S.A.). The amount of extracellular HBV virion DNA and intracellular HBV replication intermediates were determined using quantitative blot hybridization analyses (dot, Southern and northern blots, respectively, Korba B E, Gerin J L., Antiviral Research 1992; 19:55-70; Korba B E, Milman., Antiviral Research 1991; 15:217-228).
Efficacy was determined by the concentrations of agent giving 90% inhibition of viral replication (EC90) as measured in changes of HBV virion DNA and replicative intermediates. Cytotoxicity caused by the agents was measured by the uptake of neutral red dye. The cytotoxic concentration (CC50), was considered to be the concentration at which 50% of the cells took up due the dye. The selectivity index (SI, CC50 /EC90) is measure of drug toxicity in relation to drug efficacy.

[2] = Cytotoxicity in 2.2.15 cells (uptake of neutral red dye); type: cell-based; settings: human, nine daily additions
Method: as §1
as §2, with “15:217-228). […]” for “15:217-228).”

[3] = background art; cited from earlier work
2.2.15 cells = settings: β-L-FTC; Schinazi et al. Antimicrob. Agent Chem (1994) 38, 2172; cited from earlier work
HBV [4] = settings: β-L-FTC, Schinazi et al. 1994, cited from earlier work
[5] = Intracellular RI DNA (values in parentheses)

**Q.** What does the source list for `Nc1ncnc2c1ncn2[C@@H]1O[C@H](CO)[C@@H](O)[C@@H]1O` [araA]?
**A.** SI (CC50/EC90) (HBV [1]; Extracellular DNA): 11; EC90 (HBV [1]; Extracellular DNA (HBV virion)): 17 ± 1.9 µM; EC90 (HBV [1]; [5]): 25 ± 2.1 µM; SI (CC50/EC90) (HBV [1]; [5]): 7.5; SI (rounded) (HBV [1]; text statement on the SI of Table 3): about 10; CC50 [2]: 188 ± 20 µM

**Q.** With `O=c1[nH]cnc2c1ncn2[C@@H]1O[C@H](CO)[C@@H](O)[C@@H]1O` [arahypoxanthine] as the compound, how does the antiviral effect [3] read?
**A.** little antiviral effect

**Q.** Which CC50 (2.2.15 cells) does the source give for `Nc1nc(=O)n([C@@H]2CS[C@H](CO)O2)cc1F` [β-L-FTC] here?
**A.** 746 µM

**Q.** What about the EC90 (HBV [4]; Extracellular DNA) of the same compound?
**A.** 1.1 µM

**Q.** What about the “SI (CC50/EC90)” value (HBV [4]; Extracellular DNA) of the same compound?
**A.** 678

**Q.** What about the EC90 (HBV [4]; Intracellular RI DNA) of the same compound?
**A.** 0.39 µM

**Q.** And the “SI (CC50/EC90)” value (HBV [4]; Intracellular RI DNA)?
**A.** 1913

From patent US5981507A, “Polymeric carriers linked to nucleotide analogues via a phosphoramide bond” (Advanced Magnetics, Inc., priority 1996, dated 1999)
